Experimental data: patent publication US20240279241A1, “PYRIDO[4,3-D]PYRIMIDINE COMPOUNDS CAPABLE OF INHIBITING KRAS MUTANT PROTEINS” (Redx Pharma PLC, priority 2021, published 2024)
Read-outs that look alike come from different tables or passages of the source.

Experiments:
Format in all cases: biochemical
[1] = target: T1, KRAS G12D (Homo sapiens, UniProt P01116, G12D); assay: HTRF nucleotide exchange assay (NEA), KRAS G12D; details: recombinant human KRAS G12D aa1-188, 2 nM; lowest class = % inhibition at 10 μM
T1 construct: Recombinant human RAS protein (2 nM)
T1 sequence (P01116 1-188 isoform P01116-2 G12D): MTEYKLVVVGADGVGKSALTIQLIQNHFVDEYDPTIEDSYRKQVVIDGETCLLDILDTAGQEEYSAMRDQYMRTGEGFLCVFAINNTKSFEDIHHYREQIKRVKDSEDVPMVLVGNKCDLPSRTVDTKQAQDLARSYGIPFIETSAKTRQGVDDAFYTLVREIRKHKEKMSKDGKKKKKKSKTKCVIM
How it was run: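 Compound binding to KRAS G12D was measured by HTRF nucleotide exchange. Recombinant human KRAS G12D (aa1-188, N-terminal 6×His-tag, 2 nM) and 2 nM Europium anti-6×His antibody were combined with compound in 5 uL assay buffer in 384-well plates for 60 minutes at room temperature, then 5 ul of 200 nM EDA-GTP-DY647P1 was added for 30 minutes before time-resolved fluorescence reading.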

[2] = target: T2, KRAS G12S (Homo sapiens, UniProt P01116, G12S); assay: HTRF nucleotide exchange assay (NEA), KRAS G12S
T2 construct: 4 nM KRAS; aa1-188 containing the G12V, G12C, G12A or G12S amino acid substitution
T2 sequence (P01116 1-188 isoform P01116-2 G12S): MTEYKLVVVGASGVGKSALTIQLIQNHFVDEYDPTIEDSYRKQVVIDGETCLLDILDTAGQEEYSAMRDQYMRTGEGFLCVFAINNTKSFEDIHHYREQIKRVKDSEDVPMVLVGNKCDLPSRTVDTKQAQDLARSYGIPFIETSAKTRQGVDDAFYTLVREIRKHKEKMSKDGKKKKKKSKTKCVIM
Procedure: (§1) The capacity of compounds to bind KRAS G12D, other KRAS mutants and wildtype RAS isoforms was quantified using a HTRF nucleotide exchange assay. Recombinant human RAS protein (2 nM; aa1-188 KRAS WT, HRAS WT, NRAS WT, or KRAS containing the containing the G12D, G13D or Q61H amino acid substitutions, or 4 nM KRAS; aa1-188 containing the G12V, G12C, G12A or G12S amino acid substitution, an N-terminal 6×His-tag and leader sequence), and 2 nM Europium-labeled anti-6×His antibody were mixed in assay buffer (10 mM HEPES pH7.3, 150 mM NaCl, 5 mM MgCl2, 0.05% BSA, 0.0025% NP-40 and 100 mM KF) with various concentrations of compound in a 384-well plate and a volume of 5 uL. After a 60-minute incubation at room temperature, 5 ul of 200 nM EDA-GTP-DY647P1 (diluted in assay buffer) was added to the plate. Following 30-minute incubation at room temperature, time-resolved fluorescence was measured on a PerkinElmer Envision plate reader. DMSO (0.3%) and unlabeled […] (1 μM) or equivalent tool compound were used to generate the Max and Min assay signals, respectively. Data was analysed using a four-parameter logistic model to calculate IC50 values, with at least two independent replicates were performed for each compound.

[3] = target: T3, KRAS WT (Homo sapiens, UniProt P01116); assay: HTRF nucleotide exchange assay (NEA), KRAS WT
T3 construct: Recombinant human RAS protein (2 nM); aa1-188 KRAS WT
T3 sequence (P01116 1-188 isoform P01116-2): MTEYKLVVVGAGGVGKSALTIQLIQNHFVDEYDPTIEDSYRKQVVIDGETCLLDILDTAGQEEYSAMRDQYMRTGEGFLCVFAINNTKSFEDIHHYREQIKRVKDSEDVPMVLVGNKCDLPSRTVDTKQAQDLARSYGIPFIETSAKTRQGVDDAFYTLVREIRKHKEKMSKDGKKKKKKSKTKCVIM
How it was run: (§2)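 Recombinant human KRAS aa1-188 (N-terminal 6×His-tag), 2 nM for WT/G13D or 4 nM for G12C/G12S, with 2 nM Eu-anti-His antibody, preincubated with compound 60 min at RT in HEPES pH7.3 buffer; 200 nM EDA-GTP-DY647P1 then added, TR-FRET read after 30 min. IC50 by four-parameter fit.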

[4] = target: T4, KRAS G12C (Homo sapiens, UniProt P01116, G12C); assay: HTRF nucleotide exchange assay (NEA), KRAS G12C
T4 construct: 4 nM KRAS; aa1-188 containing the G12V, G12C, G12A or G12S amino acid substitution
T4 sequence (P01116 1-188 isoform P01116-2 G12C): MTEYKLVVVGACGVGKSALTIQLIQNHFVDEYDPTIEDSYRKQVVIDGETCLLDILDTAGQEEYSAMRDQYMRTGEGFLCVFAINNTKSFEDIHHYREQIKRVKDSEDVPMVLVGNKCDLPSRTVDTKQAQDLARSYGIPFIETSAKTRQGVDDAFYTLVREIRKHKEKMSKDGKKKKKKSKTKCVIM
How it was run: as §2

[5] = target: T5, KRAS G13D (Homo sapiens, UniProt P01116, G13D); assay: HTRF nucleotide exchange assay (NEA), KRAS G13D
T5 construct: Recombinant human RAS protein (2 nM); aa1-188 KRAS WT
T5 sequence (P01116 1-188 isoform P01116-2 G13D): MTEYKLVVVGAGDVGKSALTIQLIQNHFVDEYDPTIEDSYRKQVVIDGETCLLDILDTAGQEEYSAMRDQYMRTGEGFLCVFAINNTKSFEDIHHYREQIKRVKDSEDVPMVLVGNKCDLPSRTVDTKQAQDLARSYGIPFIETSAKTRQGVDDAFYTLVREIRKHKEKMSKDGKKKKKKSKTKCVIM
Procedure: as §1

[6] = target: T6, KRAS Q61H (Homo sapiens, UniProt P01116, Q61H); assay: HTRF nucleotide exchange assay (NEA), KRAS Q61H
T6 construct: Recombinant human RAS protein (2 nM); aa1-188 KRAS WT
T6 sequence (P01116 1-188 isoform P01116-2 Q61H): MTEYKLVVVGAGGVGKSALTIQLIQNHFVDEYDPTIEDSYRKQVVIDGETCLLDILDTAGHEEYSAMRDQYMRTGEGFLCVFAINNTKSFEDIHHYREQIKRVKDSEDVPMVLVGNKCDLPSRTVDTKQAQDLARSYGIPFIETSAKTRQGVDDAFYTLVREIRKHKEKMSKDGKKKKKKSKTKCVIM
Procedure: as §1

[7] = target: T7, KRAS G12A (Homo sapiens, UniProt P01116, G12A); assay: HTRF nucleotide exchange assay (NEA), KRAS G12A
T7 construct: 4 nM KRAS; aa1-188 containing the G12V, G12C, G12A or G12S amino acid substitution
T7 sequence (P01116 1-188 isoform P01116-2 G12A): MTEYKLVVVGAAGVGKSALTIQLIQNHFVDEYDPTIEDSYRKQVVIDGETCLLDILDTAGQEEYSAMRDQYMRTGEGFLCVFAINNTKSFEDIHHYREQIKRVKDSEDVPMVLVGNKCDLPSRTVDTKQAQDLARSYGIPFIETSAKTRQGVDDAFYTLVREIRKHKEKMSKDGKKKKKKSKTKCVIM
Procedure: as §1

[8] = target: T8, KRAS G12V (Homo sapiens, UniProt P01116, G12V); assay: HTRF nucleotide exchange assay (NEA), KRAS G12V
T8 construct: 4 nM KRAS; aa1-188 containing the G12V, G12C, G12A or G12S amino acid substitution
T8 sequence (P01116 1-188 isoform P01116-2 G12V): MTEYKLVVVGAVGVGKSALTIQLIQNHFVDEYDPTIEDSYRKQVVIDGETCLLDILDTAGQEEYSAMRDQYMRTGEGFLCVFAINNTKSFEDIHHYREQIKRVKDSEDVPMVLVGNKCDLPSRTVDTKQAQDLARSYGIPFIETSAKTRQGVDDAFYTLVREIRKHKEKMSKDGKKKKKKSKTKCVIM
How it was run: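 Compound binding to KRAS G12V was measured by HTRF nucleotide exchange. Recombinant human KRAS (aa1-188, G12V, N-terminal 6×His-tag and leader sequence) at 4 nM plus 2 nM Europium-labeled anti-6×His antibody were mixed with compound in assay buffer in 5 uL in 384-well plates. After 60 minutes at room temperature, 5 ul of 200 nM EDA-GTP-DY647P1 was added.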

[9] = recombinant human KRAS G13D aa1-188, 2 nM, lowest class = % inhibition at 10 μM

Compound	IC50 [1] [µM]	IC50 [2] [µM]	IC50 [3] [µM]	IC50 [4] [µM]	IC50 [5] [µM]	IC50 [6] [µM]	IC50 [7] [µM]	IC50 [8] [µM]	IC50 [5, 9] [µM]
C#Cc1c(F)ccc2cc(O)cc(-c3ncc4c(N5CCCCCC5)nc(OC[C@@]56CCCN5C[C@H](F)C6)nc4c3F)c12 (relative stereo) [Example 84, 4-[4-(azepan-1-yl)-8-fluoro-2-[[trans-2-fluoro-1,2,3,5,6,7-hexahydropyrrolizin-8-yl]methoxy]pyrido[4,3-d]pyrimidin-7-yl]-5-ethynyl-6-fluoro-naphthalen-2-ol]	≤ 0.01	≤ 0.01	≤ 0.01	≤ 0.01	0.1 to 10	≤ 0.01	≤ 0.01	≤ 0.01	–
C#Cc1c(F)ccc2cc(O)cc(-c3ncc4c(NCCCOC)nc(OC[C@@]56CCCN5C[C@H](F)C6)nc4c3F)c12 (relative stereo) [Example 85, 5-ethynyl-6-fluoro-4-[8-fluoro-2-[[trans-2-fluoro-1,2,3,5,6,7-hexahydropyrrolizin-8-yl]methoxy]-4-(3-methoxypropylamino)pyrido[4,3-d]pyrimidin-7-yl]naphthalen-2-ol]	≤ 0.01	0.01 to 0.1	≤ 0.01	≤ 0.01	–	0.01 to 0.1	≤ 0.01	≤ 0.01	> 10
Oc1cc(-c2ncc3c(N4CC5CNCC5C4)nc(OCC45CCCN4CCC5)nc3c2F)c2ccccc2c1 (stereo not drawn) [Example 1, 4-[4-(2,3,3a,4,6,6a-hexahydro-1H-pyrrolo[3,4-c]pyrrol-5-yl)-8-fluoro-2-(1,2,3,5,6,7-hexahydropyrrolizin-8-ylmethoxy)pyrido[4,3-d]pyrimidin-7-yl]naphthalen-2-ol]	0.01 to 0.1	–	0.1 to 10	0.1 to 10	0.1 to 10	0.1 to 10	–	0.1 to 10	–

Now from value to compound:

IC50 [1] [µM]	IC50 [2] [µM]	IC50 [3] [µM]	IC50 [4] [µM]	IC50 [5] [µM]	IC50 [6] [µM]	IC50 [7] [µM]	IC50 [8] [µM]	IC50 [5, 9] [µM]	Compound
≤ 0.01	0.01 to 0.1	0.01 to 0.1	≤ 0.01	0.1 to 10	0.01 to 0.1	≤ 0.01	≤ 0.01	–	Oc1cc(-c2ncc3c(N4CCCOCC4)nc(OCC45CCCN4CCC5)nc3c2F)c2ccccc2c1 [Example 3, 4-[8-fluoro-2-(1,2,3,5,6,7-hexahydropyrrolizin-8-ylmethoxy)-4-(1,4-oxazepan-4-yl)pyrido[4,3-d]pyrimidin-7-yl]naphthalen-2-ol]
0.1 to 10	–	0.1 to 10	0.1 to 10	0.1 to 10	0.1 to 10	–	0.1 to 10	–	Oc1cc(-c2ncc3c(N4CCC5(CCOC5)CC4)nc(OCC45CCCN4CCC5)nc3c2F)c2ccccc2c1 [Example 8, 4-[8-fluoro-2-(1,2,3,5,6,7-hexahydropyrrolizin-8-ylmethoxy)-4-(2-oxa-8-azaspiro[4.5]decan-8-yl)pyrido[4,3-d]pyrimidin-7-yl]naphthalen-2-ol]
0.01 to 0.1	0.1 to 10	0.01 to 0.1	0.01 to 0.1	–	0.1 to 10	0.01 to 0.1	0.01 to 0.1	> 10	CC1COCCN(c2nc(OCC34CCCN3CCC4)nc3c(F)c(-c4cc(O)cc5ccccc45)ncc23)C1 (stereo not drawn) [Example 19, 4-[8-fluoro-2-(1,2,3,5,6,7-hexahydropyrrolizin-8-ylmethoxy)-4-(6-methyl-1,4-oxazepan-4-yl)pyrido[4,3-d]pyrimidin-7-yl]naphthalen-2-ol]
0.01 to 0.1	0.01 to 0.1	0.01 to 0.1	≤ 0.01	–	0.01 to 0.1	≤ 0.01	≤ 0.01	> 10	Oc1cc(-c2ncc3c(N4CCCSCC4)nc(OCC45CCCN4CCC5)nc3c2F)c2ccccc2c1 [Example 38, 4-[8-fluoro-2-(1,2,3,5,6,7-hexahydropyrrolizin-8-ylmethoxy)-4-(1,4-thiazepan-4-yl)pyrido[4,3-d]pyrimidin-7-yl]naphthalen-2-ol]
0.1 to 10	0.1 to 10	0.1 to 10	0.1 to 10	–	0.1 to 10	0.1 to 10	0.1 to 10	> 10	Oc1cc(-c2ncc3c(N4CCCC5(CCOC5)C4)nc(OCC45CCCN4CCC5)nc3c2F)c2ccccc2c1 (stereo not drawn) [Example 56, 4-[8-fluoro-2-(1,2,3,5,6,7-hexahydropyrrolizin-8-ylmethoxy)-4-(2-oxa-9-azaspiro[4.5]decan-9-yl)pyrido[4,3-d]pyrimidin-7-yl]naphthalen-2-ol]
